Marks after values point to notes of the source that are not given here.
Assays:
[1] = system: acetic acid-induced gastric ulcer; assay: Protecting effect on acetic acid-induced gastric ulcer in rats; assay type: in vivo, Female Wistar rats; details: for Area of Ulcer (x ± s): intragastric once daily for 10 consecutive days, negative control 15.71 ± 2.20; for Inhibition of Ulcer: intragastric once daily for 10 days, percentage of the control
Description: Female Wistar rats weighing 150 to 200 g were used. Following the method described in literatures ((1) Pharmacological Test Methodology, 2nd edition, Beijing, People's Health Press, 1991, 1158-1160; (2) Guidelines for preclinical studies of new drugs (western medicines) (pharmacy, pharmacology, toxicology), 1993, 88-89), a model of acetic acid-induced gastric ulcer was made. Specifically, in an area of 5 mm in diameter on the serosal side of the body of stomach in rats under anesthesia with ether, gastric ulcer was induced by treatment with 0.2 ml of glacial acetic acid for 1.5 min. On the next day following the operation, animals were randomly divided into 6 groups and started on oral administration, with distilled water as negative control and colloidal bismuth pectin as positive control. The test samples are the bismuth hyaluronate of the present invention prepared according to the Preparation Example 1 (having a glucuronate content of 27.9% and a bismuth content of 30.7%) and the starting material sodium hyaluronate (having an average molecular weight of 9.1×10^5 and a glucuronate content of 38.9%). The rats received intragastric administration once daily in a volume of about 10 ml for 10 consecutive days. Then the animals were sacrificed, and their stomachs were removed and fixed in a formaldehyde solution. After dissection, the size of the gastric ulcer was determined by measuring under microscope the maximum longitudinal diameter (d1) and the maximum transverse diameter (d2) through the center of the ulcer, and calculating the area of ulcer using the following equation: S=π×(d1/2)×(d2/2). The inhibition of ulcer was expressed as the percentage of the control.

[2] = system: hydrochloric acid-ethanol-induced injury to gastric mucosa; assay: Prevention and treatment of hydrochloric acid-ethanol-induced injury to gastric mucosa in rats; assay type: in vivo, Female Wistar rats; details: for Length of injury (x ± s): sacrificed 1 h after, negative control 97.50 ± 13.28
Protocol: Female Wistar rats weighing 150 to 200 g were used. Following the method described in the literature (Methodology of pharmacological studies of Chinese medicines, Beijing, People's Health Press, 1994: 441). The rats were fasted, with access to water, for 24 h. Then the rats were randomly divided (see above) and received intragastric administration. 30 min after the administration, each rat was drenched with hydrochloric acid-ethanol (a mixture of 50 ml of absolute ethanol and 1 ml of concentrated hydrochloric acid) at a dose of 0.5 ml/100 g of body weight. 1 h after the treatment with acidified ethanol, the animals were sacrificed, and their stomachs were removed and fixed in a formaldehyde solution. The stomach was cut open along the greater curvature and washed for examination of the injury to the gastric mucous membrane.

[3] = 150 mg/kg intragastric 30 min before hydrochloric acid-ethanol
[4] = 50 mg/kg intragastric 30 min before hydrochloric acid-ethanol
[5] = 100 mg/kg intragastric 30 min before hydrochloric acid-ethanol

Substance	Area of Ulcer (x ± s) ([1]; 150 mg/kg)	Inhibition of Ulcer ([1]; 150 mg/kg)	Inhibition of Ulcer [2, 3]	Length of injury (x ± s) [2, 3]	Area of Ulcer (x ± s) ([1]; 50 mg/kg)	Inhibition of Ulcer ([1]; 50 mg/kg)	Area of Ulcer (x ± s) ([1]; 100 mg/kg)	Inhibition of Ulcer ([1]; 100 mg/kg)	inhibition of acetic acid-induced gastric ulcer (in words) ([1]; rats, summary of Table 2)	inhibition of acetic acid-induced gastric ulcer compared with colloidal bismuth pectin (in words) ([1]; rats, versus positive control)	Inhibition of Ulcer [2, 4]	Length of injury (x ± s) [2, 4]	Inhibition of Ulcer [2, 5]	Length of injury (x ± s) [2, 5]	inhibition of acidified ethanol-induced gastric ulcer (in words) ([2]; rats, summary of Table 3)	inhibition of acidified ethanol-induced gastric ulcer compared with colloidal bismuth pectin (in words) ([2]; rats, versus positive control)
colloidal bismuth pectin [reference compound]	7.15 ± 2.03* mm^2	54.48%	55.24%	43.64 ± 9.55 mm												
bismuth hyaluronate	4.05 ± 1.62***^ΔΔ mm^2	74.22%	92.70%	7.11 ± 2.13***^ΔΔΔ mm	5.92 ± 2.27** mm^2	62.32%	4.98 ± 1.15***^Δ mm^2	68.30%	statistically significant inhibition	significantly higher than the positive control	72.78%	26.54 ± 7.88***^ΔΔ mm	92.93%	6.89 ± 1.86***^ΔΔΔ mm	statistically significant inhibition	significantly higher than the positive control
sodium hyaluronate [reference compound]	10.25 ± 2.29 mm^2	34.75%	48.16%	50.54 ± 11.98 mm												
